According to US20190355440A1, “FLOW CYTOMETRY DATA […] ANTIMICROBIAL AGENT S[…]” (priority 2016, published 2019):

System: Enterobacteriaceae strains
Assay: FCM-AST: flow cytometry fluorescence distribution (DiBAC4(3) membrane depolarization marker) of antibiotic-treated strains
Format: cell-based
Experimental: In a next step 22, liquid samples with different concentrations {C1, . . . , Cm} of the antibiotic are prepared for each of the selected strains Si, where C1=0 (no antibiotic) and m>2 is the number of non-null concentrations of antibiotic. Said concentrations are stored in the computer unit 14. […] After 2 h growth at 35° C. with shaking at 180 rpm, the resulting exponential phase bacterial culture is normalized at 0.5 McF and used to inoculate wells of a microtiterplate supplemented with antibiotics at the different concentrations {C1, . . . , Cm}. After 1 h of incubation at 35° C., a membrane depolarization fluorescent marker, for example (Bis-(1,3-Dibutylbarbituric Acid)Trimethine Oxonol), also known as “DiBAC4(3)”, is added to the wells at a final concentration of 0.5 μg/ml. An additional 15 min incubation with the marker is at 35° C. is then carried out. The concentrations {C1, . . . , Cm} are chosen such that the range [BPS, BPR] is included or equal to the range [C2, Cm] of non-null concentrations.
In the step 24, a FCM acquisition is performed for each sample by means of the flow-cytometer 12 and the corresponding FSC, SSC and fluorescence distributions stored in the computer unit 14. For each strain Si, and for each concentration Cj, a FSC distribution “FSCi,j”, a SSC distribution “SSCi,j” and a fluorescence distribution “FIi,j” are thus stored in the computer unit 14, e.g. in the form of digital vectors.
The experiment was performed as described in the following lines: • A panel of 107 Enterobacteriaceae strains (FIG. 6: Distribution of the panel of strains according to their MICs for Gentamicin) were treated with 0, 2, 4 and 8 mg/L of Gentamicin following the protocol described in FIG. 3 and analyzed by FCM.
In this experiment, we have made an evaluation of wide range of prediction models for Ceftazidime: • 128 Enterobacteriaceae strains (FIG. 9: Distribution of the panel of strains according to their MICs for Ceftazidime) were treated or not with four different concentrations of Ceftazidime (1, 2, 4 and 8 mg/L) using the FCM protocol described in FIG. 3; • FCM data were used to generate feature vectors as described above; • For each strategy (BPS, GS and GMS), 7 type of prediction models were built based on the feature vectors generated (FIG. 10: Number of predictions models generated. “FL1” means fluorescence); • The performance of all models were evaluated following cross validation as described above.

Compound | fluorescence distribution of treated strains (inferred from poor performance of quantile models) (128 Enterobacteriaceae strains, 1, 2, 4 and 8 mg/L Ceftazidime) | fluorescence distribution profile vs untreated sample (intermediate phenotype strains, 2 mg/L Gentamicin) | fluorescence distribution profile vs untreated sample (intermediate phenotype strains, 4 and 8 mg/L Gentamicin) | resistant strains that did not show any shift in fluorescence (profile A) (resistant strains, all concentrations tested (2, 4, 8 mg/L)) | fluorescence distribution profile vs untreated sample (susceptible phenotype strains, panel of 107 strains, 2 mg/L Gentamicin) | fluorescence distribution profile vs untreated sample (susceptible phenotype strains, panel of 107 strains, 4 and 8 mg/L Gentamicin)
CC(C)(O/N=C(\C(=O)N[C@@H]1C(=O)N2C(C(=O)[O-])=C(C[n+]3ccccc3)CS[C@H]12)c1csc(N)n1)C(=O)O [Ceftazidime] | the majority of strains treated with Ceftazidime exhibit homogeneous distributions of fluorescence | – | – | – | – | –
Gentamicin | – | more strains showed no shift of fluorescence (profile A) | equal number of strains exhibited either no shift (profile A) or heterogeneous fluorescence distribution (profile B) | 36 out of 37 | equal number of strains exhibited either no shift (profile A) or heterogeneous fluorescence distributions (profile B) | the majority of strains exhibited an heterogeneous fluorescence distribution (profile B)
